Counter-ions that a name gives are not always drawn.

In one assay the target is T1, KRAS-G12D and SOS1 (Homo sapiens, UniProt P01116, G12D).
T1 construct: purchased
In words: Inhibition of KRAS-G12D/SOS1 binding (Cisbio binding kit, 665/615 ratio), Effect Embodiment A. As to conditions: read-out: GTP-KRAS-G12D:SOS1 IC50. The essentials:
(§1)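 Duplicate wells received an eleven-point, threefold compound titration whose top point was the stock solution; final DMSO 1%.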

Another assay concerns the target T2, KRAS_G12D and cRAF (Homo sapiens, UniProt P01116, G12D).
T2 construct: purchased
Nature of the assay: Inhibition of KRAS_G12D/cRAF binding (Cisbio binding kit, 665/615 ratio), Effect Embodiment B. The settings on record: read-out: GTP-KRAS-G12D:CRAF IC50. In outline: as §1

The target in another assay is T3, KRAS_WT and SOS1 (Homo sapiens, UniProt P01116).
T3 construct: purchased
T3 sequence (P01116 1-188 isoform P01116-2): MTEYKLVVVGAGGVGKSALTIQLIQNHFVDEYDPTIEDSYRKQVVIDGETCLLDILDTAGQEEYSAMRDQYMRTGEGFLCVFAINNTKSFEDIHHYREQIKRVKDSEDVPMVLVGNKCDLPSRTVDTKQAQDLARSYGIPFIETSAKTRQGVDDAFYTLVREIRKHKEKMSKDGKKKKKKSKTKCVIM
Nature of the assay: Inhibition of KRAS_WT/SOS1 binding (Cisbio binding kit, 665/615 ratio), Effect Embodiment C. The settings on record: read-out: GTP-KRAS-WT:SOS1 IC50. In outline:
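Compounds tested as 3-fold, 11-point dilutions in duplicate at 1% DMSO final against the KRAS_WT/SOS1 binding system. IC50 derived by nonlinear regression fit.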

T2 sequence (P01116 1-188 isoform P01116-2 G12D): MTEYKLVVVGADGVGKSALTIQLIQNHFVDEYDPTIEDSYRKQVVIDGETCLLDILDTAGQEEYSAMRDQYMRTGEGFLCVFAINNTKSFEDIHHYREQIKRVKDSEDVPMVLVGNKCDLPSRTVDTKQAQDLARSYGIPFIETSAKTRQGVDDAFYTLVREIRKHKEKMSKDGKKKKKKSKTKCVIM
T1 sequence (P01116 1-188 isoform P01116-2 G12D): as above

Broadly, the IC50 is the concentration needed to halve the response being measured. Consider `C=CCN1CCC[C@H]1COc1nc(N2CC3CCC(C2)N3)c2cc(F)c(-c3cc(O)cc4ccc(F)c(CC)c34)c(F)c2n1` (single isomer, unassigned) [Compound 287a, 4-((S or R)-2-((S)-1-allylpyrrolidin-2-yl)methoxy)-4-((1R,5S)-3,8-diazacyclo[3.2.1]octan-3-yl)-6,8-difluoroquinazolin-7-yl)-5-ethyl-6-fluoronaphthalen-2-ol dihydrochloride], for which the IC50 on KRAS-G12D and SOS1 amounted to 10.1 nM; on KRAS_G12D and cRAF it was 11.3 nM; at KRAS_WT and SOS1 it was 29.1 nM.
In the same order, the values of `CN(C)C1CCC(Oc2nc(N3CC4CCC(C3)N4)c3cc(Cl)c(-c4cc(O)cc5ccccc45)c(F)c3n2)C1` (single isomer, unassigned) [Compound 70a, 4-((S or R)-4-((1R,5S)-3,8-diazabicyclo[3.2.1]octan-3-yl)-6-chloro-2-((1S,3R or 1R,3S)-3-(dimethylamino)cyclopentyl)oxy)-8-fluoroquinazolin-7-yl)naphthalen-2-ol dihydrochloride] are 93.9 nM, 592 nM and above 100000 nM.
The like results for `CN(C)C1CN(c2nc(N3CC4CCC(C3)N4)c3cc(Cl)c(-c4cc(O)cc5cccc(Cl)c45)c(F)c3n2)C1` (single isomer, unassigned) [Compound 65b, 4-((R or S)-4-((1R,5S)-3,8-diazabicyclo[3.2.1]octan-3-yl)-6-chloro-2-(3-(dimethylamino)azetidin-1-yl)-8-fluoroquinazolin-7-yl)-5-chloronaphthalen-2-ol] were, in that order, 84.3 nM, 434 nM and 270 nM.
In the same order, the values of `CCc1cccc2cc(O)cc(-c3c(F)cc4c(N5CC6CCC(C5)N6)nc(OCCCN5C[C@@H](C)O[C@@H](C)C5)nc4c3F)c12` (single isomer, unassigned) [Compound 283a, (S or R)-4-(4-((1R,5S)-3,8-diazacyclo[3.2.1]octan-3-yl)-2-(3-((2S,6R)-2,6-dimethylmorpholinylpropoxy)-6,8-difluoroquinazolin-7-yl)-5-ethylnaphthalen-2-oldihydrochloride] are 15.8 nM, 19.2 nM and 761 nM.
In the case of `C[C@H]1C[C@@H](COc2nc(N3CC4CCC(C3)N4)c3cnc(-c4cc(O)cc5ccccc45)c(F)c3n2)N(C)C1` [Compound 133, 4-(4-((1R,5S)-3.8-diazabicyclo[3.2.1]octan-3-yl)-2-((2S,4S)-1,4-dimethylpyrrolidin-2-yl)methoxy)-8-fluoropyridinyl[4,3-d]pyrimidin-7-yl)naphthalen-2-ol trifluoroacetate], the IC50 on KRAS-G12D and SOS1 came to 19.3 nM; on KRAS_G12D and cRAF, 18.7 nM; on KRAS_WT and SOS1, 85.4 nM.
In the same order, the values of `CN1CCN(CCCOc2nc(N3CC4CCC(C3)N4)c3cc(Cl)c(-c4cc(O)cc5ccccc45)c(F)c3n2)CC1` (single isomer, unassigned) [Compound 99, 4-((S or R)-4-((1R,5S)-3,8-diazabicyclo[3.2.1]octan-3-yl)-6-chloro-8-fluoro-2-(3-(4-methylpiperazin-1-yl)propoxy)quinazolin-7-yl)naphthalen-2-ol dihydrochloride] are 52.2 nM, 168 nM and 2600 nM.
For `CN(C)CCCCCCOc1nc(N2C[C@H]3CC[C@@H](C2)N3)c2cc(Cl)c(-c3cc(O)cc4ccccc34)c(F)c2n1` (single isomer, unassigned) [Compound 68, (S or R)-4-(4-((1R,5S)-3,8-diazabicyclo[3.2.1]octan-3-yl)-6-chloro-2-((6-(dimethylamino)hexyl)oxy)-8-fluoroquinazolin-7-yl)naphthalen-2-ol dihydrochloride], the half-maximal inhibitory concentration (IC50) at KRAS-G12D and SOS1 is 214 nM; at KRAS_G12D and cRAF, 646 nM; on KRAS_WT and SOS1, 16700 nM.
In the same order, the values of `CN1CCCC1CCOc1nc(N2CC3CCC(C2)N3)c2cc(Cl)c(-c3cc(O)cc4ccccc34)c(F)c2n1` (single isomer, unassigned) [Compound 96a, 4-((S or R)-4-((1R,5S)-3,8-diazabicyclo[3.2.1]octan-3-yl)-6-chloro-8-fluoro-2-(2-((S or R)-1-methylpyrrolidin-2-yl)ethoxy)quinazolin-7-yl)naphthalen-2-ol] are 22 nM, 88.5 nM and 1540 nM.
The like results for `C[C@@H](COc1nc(N2CC3CCC(C2)N3)c2cc(Cl)c(-c3cc(O)cc4ccccc34)c(F)c2n1)CN1C2CC3CC1CC(C2)O3` (single isomer, unassigned) [Compound 230, 4-((S or R)-2-((R)-3-((1R,3R,5R,7R)-2-oxa-6-azadamantan-6-yl)-2-methylpropoxy)-4-((1R,5S)-3,8-diazabicyclo[3.2.1]octan-3-yl)-6-chloro-8-fluoroquinazolin-7-yl)naphthalen-2-ol diformate] were, in that order, 15.7 nM, 28.1 nM and 626 nM.
For the molecule `CN(C)C1CN(c2nc(N3C[C@@H]4C[C@H]3CN4)c3cc(Cl)c(-c4cc(O)cc5ccccc45)c(F)c3n2)C1` (single isomer, unassigned) [Compound 2a, (R or S)-4-(4-((1S,4S)-2,5-diazabicyclo [2.2.1]heptan-2-yl)-6-chloro-2-(3-(dimethylamino)azetidin-1-yl)-8-fluoro-quinazolin-7-yl)naphthalen-2-ol], the IC50 on KRAS-G12D and SOS1 was 248 nM; at KRAS_G12D and cRAF, 589 nM; on KRAS_WT and SOS1, 9750 nM.
The like results for `CN(C)C1CN(c2nc(N3CC4(CNC4)C3)c3cc(Cl)c(-c4cc(O)cc5ccccc45)c(F)c3n2)C1` (single isomer, unassigned) [Compound 7a, (R or S)-4-(6-chloro-2-(3-(dimethylamino)azetidin-1-yl)-8-fluoro-4-(2,6-diazaspiro[3.3]heptan-2-yl)quinazolin-7-yl)naphthalen-2-ol] were, in that order, 278 nM, 3330 nM and 15900 nM.
In the same order, the values of `CN(C)C(=O)OCC1CCC2(COc3nc(N4CC5CCC(C4)N5)c4cc(Cl)c(-c5cc(O)cc6ccccc56)c(F)c4n3)CCCN12` (single isomer, unassigned) [Compound 232a] are 13.7 nM, 7.79 nM and 10.3 nM.
The like results for `CN(C)C1CN(c2nc(N3CC4(CCNCC4)C3)c3cc(Cl)c(-c4cc(O)cc5ccccc45)c(F)c3n2)C1` (single isomer, unassigned) [Compound 10a, (R or S)-4-(6-chloro-2-(3-(dimethylamino)azetidin-1-yl)-8-fluoro-4-(2,7-diazaspiro[3.5]nonan-2-yl)quinazolin-7-yl)naphthalen-2-ol] were, in that order, 780 nM, 3230 nM and 10300 nM.
Regarding `CN(C)CCCCOc1nc(N2CC3CCC(C2)N3)c2cc(Cl)c(-c3cc(O)cc4ccccc34)c(F)c2n1` (single isomer, unassigned) [Compound 60a, 4-((S or R)-4-((1R,5S)-3,8-diazabicyclo[3.2.1]octan-3-yl)-6-chloro-2-(4-(dimethylamino)butoxy)-8-fluoroquinazolin-7-yl)naphthalen-2-ol], the IC50 on KRAS-G12D and SOS1 was found to be 63 nM; on KRAS_G12D and cRAF, 357 nM; at KRAS_WT and SOS1, 5900 nM.
In the same order, the values of `CC1OCCN(CCCOc2nc(N3CC4CCC(C3)N4)c3cc(Cl)c(-c4cc(O)cc5ccccc45)c(F)c3n2)C1C` (single isomer, unassigned) [Compound 265b, 4-((R or S)-4-((1R,5S)-3,8-diazabicyclo[3.2.1]octan-3-yl)-6-chloro-2-(3-((2S or 2R, 3R or 3S)-2,3-dimethylmorpholinyl)propoxy)-8-fluoroquinazolin-7-yl)naphthalen-2-ol diformate] are 59.6 nM, 199 nM and 7850 nM.
Turning to `CN(C)C1CN(c2nc(N3CC4CCC(C3)N4)c3cc(Cl)c(-c4cc(O)cc5cccc(F)c45)c(F)c3n2)C1` (single isomer, unassigned) [Compound 64b, 4-((R or S)-4-((1R,5S)-3,8-diazabicyclo[3.2.1]octan-3-yl)-6-chloro-2-(3-(dimethylamino)azetidin-1-yl)-8-fluoroquinazolin-7-yl)-5-fluoronaphthalen-2-ol], the half-maximal inhibitory concentration (IC50) on KRAS-G12D and SOS1 was 44.6 nM; at KRAS_G12D and cRAF it was 283 nM; at KRAS_WT and SOS1, 1250 nM.
The like results for `Oc1cc(-c2c(Cl)cc3c(N4CC5CCC(C4)N5)nc(OCC(F)CN4CCCC4)nc3c2F)c2ccccc2c1` (single isomer, unassigned) [Compound 109a, 4-((S or R)-4-((1R,5S)-3,8-diazabicyclo[3.2.1]octan-3-yl)-6-chloro-8-fluoro-2-((S or R)-2-fluoro-3-(pyrrolidin-1-yl)propoxy)quinazolin-7-yl)naphthalen-2-ol hydrochloride] were, in that order, 27 nM, 89.3 nM and 2570 nM.
On to `CNCCCOc1nc(N2CC3CCC(C2)N3)c2cc(Cl)c(-c3cc(O)cc4ccccc34)c(F)c2n1` (single isomer, unassigned) [Compound 93, 4-((S or R)-4-((1R,5S)-3,8-diazabicyclo[3.2.1]octan-3-yl)-6-chloro-8-fluoro-2-(3-(methylamino)propoxy)quinazolin-7-yl)naphthalen-2-ol dihydrochloride], for which the IC50 at KRAS-G12D and SOS1 amounted to 12.3 nM; at KRAS_G12D and cRAF, 82.1 nM; on KRAS_WT and SOS1, 2030 nM.

Source of the values: patent US20230365563A1, “QUINAZOLINE COMPOUND AND APPLICATION THEREOF” (SHANGHAI PHARMACEUTICALS HOLDING CO., LTD., priority 2020, published 2023).
